Experimental data from paper PMC9506485, “Synthesis and Structure–Activity Relationships for the Anti-Mycobacterial Activity of 3-Phenyl-N-(Pyridin-2-ylmethyl)Pyrazolo[1,5-a]Pyrimidin-7-Amines” (Pharmaceuticals, 2022).
≈ marks a conversion by molar mass, not a printed value.

Experiments:
[1] = tested on: VERO green monkey kidney cells; assay: VERO mammalian cell toxicity assay; assay type: cell-based; settings: Chlorocebus sabaeus; inhibition of growth of VERO green monkey kidney epithelial cells
[2] = tested on: Mycobacterium tuberculosis (strain H37Rv); assay: LORA minimum inhibitory concentration assay (low-oxygen/non-replicating); settings: M.tb H37Rv, 90% inhibition of growth
[3] = molecular target: hERG (Homo sapiens, UniProt Q12809); assay: hERG channel blockade, manual patch clamp; assay type: cell-based; settings: cloned hERG potassium channels, room temperature; for inhibition at 0.3 µM: read-out: hERG % inhib. at 0.3 µM; for inhibition at 1 µM: read-out: hERG % inhib. at 1.0 µM
Protocol: Selected compounds were evaluated for hERG channel blockade (Table 4) by WuXi AppTec (Shanghai) Co., Ltd. This was carried out using cloned hERG potassium channels according to their standard manual patch clamp method. Two concentrations (0.3 and 1.0 µM) were tested (at room temperature), and at least three replicates were obtained for each. Amitryptyline was used as a standard.

[4] = Microsomal stability, mouse liver microsomes; assay type: in vitro ADME; settings: for CLint scaled at 1 μM / half-life at 1 μM: CD-1, mouse, microsomes, pH 7.4; for microsomal CLint at 1 μM: CD-1, pH 7.4, mouse liver microsomes, read-out: MLM Clint(mic)
Protocol: (§1) Assays were performed by WuXi AppTec (Shanghai) Co., Ltd. The test compounds (Table 4) (at 1 μM) were incubated at 37 °C with liver microsomes from human or CD-1 mice in the presence of a NADPH regenerating system and phosphate buffer (100 mM, pH 7.4) at 0.5 mg/mL microsomal protein (the positive controls were testosterone, propafenone, and diclofenac). Samples were removed at time intervals of 0, 5, 10, 20, 30, and 60 min and immediately mixed with cold CH3CN (containing 0.1 μg/mL of tolbutamide as an internal standard) and then centrifuged prior to analysis by LCMS/MS.

[5] = tested on: Mycobacterium tuberculosis (strain H37Rv); assay: MABA minimum inhibitory concentration assay (aerobic/replicating); assay type: cell-based; settings: M.tb H37Rv; for anti-mycobacterial activity in words: MABA/LORA; for MIC90: Mycobacterium tuberculosis, aerobic/replicating, 90% inhibition of growth
[6] = Microsomal stability, human liver microsomes; assay type: in vitro ADME; settings: pH 7.4; for microsomal CLint at 1 μM: human liver microsomes, read-out: HLM Clint(mic)
Protocol: as §1

[7] = human/mouse liver microsomes not distinguished, read-out: T½ values (microsomal stability)

hERG, sequence (Q12809 whole entry): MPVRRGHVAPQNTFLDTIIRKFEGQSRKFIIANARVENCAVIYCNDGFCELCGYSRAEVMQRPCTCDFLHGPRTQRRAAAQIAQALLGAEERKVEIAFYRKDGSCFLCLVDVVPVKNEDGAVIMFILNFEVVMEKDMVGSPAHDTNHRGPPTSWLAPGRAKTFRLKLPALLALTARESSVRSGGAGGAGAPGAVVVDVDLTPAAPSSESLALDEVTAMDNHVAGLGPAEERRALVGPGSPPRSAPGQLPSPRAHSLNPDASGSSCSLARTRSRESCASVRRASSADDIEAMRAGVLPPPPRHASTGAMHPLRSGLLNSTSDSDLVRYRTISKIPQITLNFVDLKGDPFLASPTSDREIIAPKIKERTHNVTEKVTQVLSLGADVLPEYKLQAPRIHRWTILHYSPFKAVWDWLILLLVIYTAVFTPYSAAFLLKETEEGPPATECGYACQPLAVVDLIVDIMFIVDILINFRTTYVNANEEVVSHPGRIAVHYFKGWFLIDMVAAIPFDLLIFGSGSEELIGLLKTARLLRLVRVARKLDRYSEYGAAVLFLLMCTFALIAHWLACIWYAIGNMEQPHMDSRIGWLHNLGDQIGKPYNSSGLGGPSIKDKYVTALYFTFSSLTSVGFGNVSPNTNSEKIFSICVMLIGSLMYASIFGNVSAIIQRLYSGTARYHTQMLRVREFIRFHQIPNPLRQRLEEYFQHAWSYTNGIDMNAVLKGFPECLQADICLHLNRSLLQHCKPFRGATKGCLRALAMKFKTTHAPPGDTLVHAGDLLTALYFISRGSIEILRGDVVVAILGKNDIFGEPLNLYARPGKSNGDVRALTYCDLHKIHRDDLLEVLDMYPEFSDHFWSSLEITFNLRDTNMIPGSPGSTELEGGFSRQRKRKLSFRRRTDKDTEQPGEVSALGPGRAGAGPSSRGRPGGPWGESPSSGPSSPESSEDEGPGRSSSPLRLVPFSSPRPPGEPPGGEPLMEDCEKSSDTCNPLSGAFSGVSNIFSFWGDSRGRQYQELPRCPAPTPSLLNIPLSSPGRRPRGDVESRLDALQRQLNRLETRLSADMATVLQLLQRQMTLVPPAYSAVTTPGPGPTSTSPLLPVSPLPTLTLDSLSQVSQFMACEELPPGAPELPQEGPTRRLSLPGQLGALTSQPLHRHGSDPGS

| SMILES | melting point [°C] | IC50 [1] [µg/mL] | MIC90 LORA [2] [µg/mL] | inhibition at 0.3 µM [3] [%] | inhibition at 1 µM [3] [%] | CLint scaled at 1 μM [4] [mL/min/kg] | half-life at 1 μM [4] [h] | microsomal CLint at 1 μM [4] [µL/min/mg] | anti-mycobacterial activity in words [5] | MIC90 [5] [µg/mL] | CLint scaled at 1 μM ([6]; human, microsomes) [mL/min/kg] | half-life at 1 μM ([6]; human, microsomes) [h] | microsomal CLint at 1 μM [6] [µL/min/mg] | half-life at 1 μM [6, 7] [h] |
| --- | --- | --- | --- | --- | --- | --- | --- | --- | --- | --- | --- | --- | --- | --- |
| COc1ccc(-c2cnn3c(NCc4ccccn4)cc(-c4ccccc4)nc23)cc1 [Compound 20, 3-(4-Methoxyphenyl)-5-phenyl-N-(pyridin-2-ylmethyl)pyrazolo[1,5-a]pyrimidin-7-amine] | 187 to 189 | > 32 | 0.51 (≈ 1.25 µM) | 0 | 0 | 92 | 1 | 23 | active | 3.6 (≈ 8.83 µM) | 20 | 1.03 | 22 | < 1.42 |
| Fc1ccc(-c2cnn3c(NCc4ccccn4)cc(-c4ccc(OC(F)(F)F)cc4)nc23)cc1 [Compound 38, 3-(4-Fluorophenyl)-N-(pyridin-2-ylmethyl)-5-(4-(trifluoromethoxy)phenyl)pyrazolo[1,5-a]pyrimidin-7-amine] | – | > 32 | 1.1 (≈ 2.29 µM) | 2 | 2 | < 38 | > 2.42 | < 9.6 | – | 1.9 (≈ 3.96 µM) | 15 | 1.43 | 16 | < 1.42 |
| COc1ccnc(CNc2cc(-c3ccccc3)nc3c(-c4ccc(F)cc4)cnn23)c1 [Compound 63, 3-(4-Fluorophenyl)-N-((4-methoxypyridin-2-yl)methyl)-5-phenylpyrazolo[1,5-a]pyrimidin-7-amine] | 205 to 208 | > 32 | 0.5 (≈ 1.18 µM) | 2.3 | 4.6 | < 38 | > 2.42 | < 9.6 | – | 1.9 (≈ 4.47 µM) | < 8.6 | > 2.42 | < 9.6 | – |
| Fc1ccc(-c2cnn3c(NCc4ccccn4)cc(-c4ccsc4)nc23)cc1 [Compound 42, 3-(4-Fluorophenyl)-N-(pyridin-2-ylmethyl)-5-(thiophen-3-yl)pyrazolo[1,5-a]pyrimidin-7-amine] | – | > 32 | 0.22 (≈ 0.548 µM) | 9 | 24 | 298 | 0.3 | 75 | – | 1.4 (≈ 3.49 µM) | 43 | 0.483 | 47 | < 1.42 |
| COc1ccc(-c2cc(NCc3ccccn3)n3ncc(-c4ccc(F)cc4)c3n2)cc1 [Compound 34, 3-(4-Fluorophenyl)-5-(4-methoxyphenyl)-N-(pyridin-2-ylmethyl)pyrazolo[1,5-a]pyrimidin-7-amine] | – | > 32 | 0.25 (≈ 0.588 µM) | 0 | 1 | 88 | 1.05 | 22 | – | 1.5 (≈ 3.53 µM) | 16 | 1.28 | 18 | < 1.42 |
| Fc1ccc(-c2cnn3c(NCc4ccccn4)cc(-c4cccs4)nc23)cc1 [Compound 41, 3-(4-Fluorophenyl)-N-(pyridin-2-ylmethyl)-5-(thiophen-2-yl)pyrazolo[1,5-a]pyrimidin-7-amine] | – | > 32 | 0.36 (≈ 0.897 µM) | 0 | 0 | 163 | 0.567 | 41 | – | 0.99 (≈ 2.47 µM) | 75 | 0.283 | 83 | < 1.42 |
| Fc1ccc(-c2cnn3c(NCc4ccccn4)cc(-c4cccnc4)nc23)cc1 [Compound 39, 3-(4-Fluorophenyl)-N-(pyridin-2-ylmethyl)-5-(pyridin-3-yl)pyrazolo[1,5-a]pyrimidin-7-amine] | – | > 32 | 0.30 (≈ 0.757 µM) | 16 | 46 | 445 | 0.2 | 112 | – | 2.3 (≈ 5.8 µM) | 57 | 0.367 | 63 | < 1.42 |
| CC(C)(C)c1ccc(-c2cc(NCc3ccccn3)n3ncc(-c4ccc(F)cc4)c3n2)cc1 [Compound 36, 5-(4-(Tert-butyl)phenyl)-3-(4-fluorophenyl)-N-(pyridin-2-ylmethyl)pyrazolo[1,5-a]pyrimidin-7-amine] | – | > 32 | 1.9 (≈ 4.21 µM) | 0 | 0 | < 38 | > 2.42 | < 9.6 | – | 1.7 (≈ 3.76 µM) | < 8.6 | > 2.42 | < 9.6 | – |
| Cc1cccc(-c2cc(NCc3ccccn3)n3ncc(-c4ccc(F)cc4)c3n2)c1 [Compound 30, 3-(4-Fluorophenyl)-N-(pyridin-2-ylmethyl)-5-(m-tolyl)pyrazolo[1,5-a]pyrimidin-7-amine] | – | > 32 | 0.9 (≈ 2.2 µM) | 3 | 11 | < 38 | > 2.42 | < 9.6 | – | 1.6 (≈ 3.91 µM) | < 8.6 | > 2.42 | < 9.6 | – |
| Fc1ccc(-c2cnn3c(NCc4ccc(Cl)cn4)cc(-c4ccccc4)nc23)cc1 [Compound 53, N-((5-Chloropyridin-2-yl)methyl)-3-(4-fluorophenyl)-5-phenylpyrazolo[1,5-a]pyrimidin-7-amine] | 139 to 141 | > 32 | 7.2 (≈ 16.7 µM) | 0.7 | 0 | < 38 | > 2.42 | < 9.6 | – | 4.9 (≈ 11.4 µM) | < 8.6 | > 2.42 | < 9.6 | – |
| Fc1ccc(-c2cnn3c(NCc4ccccn4)cc(-c4ccccc4)nc23)cc1 [Compound 18, 3-(4-Fluorophenyl)-5-phenyl-N-(pyridin-2-ylmethyl)pyrazolo[1,5-a]pyrimidin-7-amine] | 191 to 193 | > 32 | 0.40 (≈ 1.01 µM) | 0.3 | 5 | 99 | 0.933 | 25 | active | 3.8 (≈ 9.61 µM) | 12 | 1.75 | 13 | < 1.42 |
| Fc1ccc(-c2cnn3c(NCc4ccccn4)cc(-c4ccccc4F)nc23)cc1 [Compound 28, 5-(2-Fluorophenyl)-3-(4-fluorophenyl)-N-(pyridin-2-ylmethyl)pyrazolo[1,5-a]pyrimidin-7-amine] | – | > 32 | 0.22 (≈ 0.532 µM) | 17 | 36 | 113 | 0.817 | 29 | – | 1.79 (≈ 4.33 µM) | 18 | 1.15 | 20 | < 1.42 |
| Fc1ccc(-c2cnn3c(NCc4ccccn4)cc(-c4ccoc4)nc23)cc1 [Compound 44, 3-(4-Fluorophenyl)-5-(furan-3-yl)-N-(pyridin-2-ylmethyl)pyrazolo[1,5-a]pyrimidin-7-amine] | – | > 32 | 0.16 (≈ 0.415 µM) | 4 | 14 | 570 | 0.167 | 144 | – | 0.96 (≈ 2.49 µM) | 66 | 0.317 | 74 | < 1.42 |
| Fc1ccc(-c2cnn3c(NCc4ccccn4)cc(C4CC4)nc23)cc1 [Compound 25, 5-Cyclopropyl-3-(4-fluorophenyl)-N-(pyridin-2-ylmethyl)pyrazolo[1,5-a]pyrimidin-7-amine] | – | 23.4 (≈ 65.1 µM) | 0.20 (≈ 0.556 µM) | 8 | 19 | 424 | 0.217 | 107 | – | 1.54 (≈ 4.28 µM) | 68 | 0.3 | 76 | < 1.42 |
